The values that follow come from US9879250B2, “Protein-stabilizing agent and protein-stabilizing method” (NOF CORPORATION, priority 2014, dated 2018).

The nature of the data set: Dissolution in phosphate buffer when preparing the protein stabilization solution. Format: physicochemical. To be noted: phosphate buffer (pH 7.4). As to the method: Two protein stabilizer solutions were prepared by dissolving the compound produced in Synthesis Example 1 in a phosphate buffer (pH 7.4) in such a manner that the final concentrations were controlled at 1.000% by mass (Example 1-1-1) and 0.100% by mass (Example 1-1-2) shown in Table 1 respectively.
Preparation of a protein stabilization solution was tested in the same manner as Example 1-1 except for using the compound produced in Comparative Synthesis Example 1. However, the compound produced in Comparative Synthesis Example 1 was not dissolved in the phosphate buffer, so that the protein stabilization effect could not evaluated.

As for `CCCCCCCCCCCCCCCCCCCCSCC(C)C(=O)OCCOP(=O)([O-])OCC[N+](C)(C)C` (stereo not shown) [Comparative Synthesis Example 1, 2-[3-(eicosasulfanyl)-2-methylpropionyloxy]ethyl-2-(trimethylammonio)ethyl phosphate], the “Dissolution in the phosphate buffer” value is “not dissolved”.
